Measured values published in ChEMBL document CHEMBL4507289, “Data for DCP probe GSM1” (2021).
Activity calls are given as the source filed them.

Key:
[1] = biological target: Amyloid-beta precursor protein (Homo sapiens, UniProt P05067); test: Aβ42 inhibition assay
[2] = biological target: RAC-gamma serine/threonine-protein kinase (Homo sapiens) (UniProt Q9Y243); details: Compound concentration 1000.0 nM
[3] = biological target: Cytoplasmic tyrosine-protein kinase BMX (Homo sapiens) (UniProt P51813); details: Compound concentration 1000.0 nM
[4] = biological target: Calcium/calmodulin-dependent protein kinase type 1B (Homo sapiens) (UniProt Q6P2M8); details: Compound concentration 1000.0 nM
[5] = biological target: Calcium/calmodulin-dependent protein kinase type II subunit gamma (Homo sapiens) (UniProt Q13555); details: Compound concentration 1000.0 nM
[6] = biological target: Cyclin-dependent kinase 13 (Homo sapiens) (UniProt Q14004); details: Compound concentration 1000.0 nM
[7] = biological target: Cyclin-dependent kinase 4 (Homo sapiens) (UniProt P11802); details: Compound concentration 1000.0 nM
[8] = biological target: Casein kinase I isoform epsilon (Homo sapiens) (UniProt P49674); details: Compound concentration 1000.0 nM
[9] = biological target: Dual specificity tyrosine-phosphorylation-regulated kinase 1B (Homo sapiens) (UniProt Q9Y463); details: Compound concentration 1000.0 nM
[10] = biological target: Epidermal growth factor receptor (Homo sapiens) (UniProt P00533); details: Compound concentration 1000.0 nM
[11] = tested on: Epidermal growth factor receptor (Homo sapiens), P00533 [L858R]; details: Compound concentration 1000.0 nM
[12] = tested on: Epidermal growth factor receptor (Homo sapiens), P00533 [T790M]; details: Compound concentration 1000.0 nM
[13] = biological target: Ephrin type-A receptor 3 (Homo sapiens) (UniProt P29320); details: Compound concentration 1000.0 nM
[14] = biological target: Ephrin type-A receptor 7 (Homo sapiens) (UniProt Q15375); details: Compound concentration 1000.0 nM
[15] = biological target: Ephrin type-B receptor 6 (Homo sapiens) (UniProt O15197); details: Compound concentration 1000.0 nM
[16] = biological target: Mitogen-activated protein kinase 1 (Homo sapiens) (UniProt P28482); details: Compound concentration 1000.0 nM
[17] = biological target: Mitogen-activated protein kinase 7 (Homo sapiens) (UniProt Q13164); details: Compound concentration 1000.0 nM
[18] = biological target: Tyrosine-protein kinase Fer (Homo sapiens) (UniProt P16591); details: Compound concentration 1000.0 nM
[19] = biological target: Interleukin-1 receptor-associated kinase 4 (Homo sapiens) (UniProt Q9NWZ3); details: Compound concentration 1000.0 nM
[20] = biological target: Mitogen-activated protein kinase kinase kinase 13 (Homo sapiens) (UniProt O43283); details: Compound concentration 1000.0 nM
[21] = biological target: Mitogen-activated protein kinase kinase kinase 2 (Homo sapiens) (UniProt Q9Y2U5); details: Compound concentration 1000.0 nM
[22] = biological target: MAP kinase-activated protein kinase 2 (Homo sapiens) (UniProt P49137); details: Compound concentration 1000.0 nM
[23] = biological target: Microtubule-associated serine/threonine-protein kinase 1 (Homo sapiens) (UniProt Q9Y2H9); details: Compound concentration 1000.0 nM
[24] = tested on: Hepatocyte growth factor receptor (Homo sapiens), P08581 [M1250T]; details: Compound concentration 1000.0 nM
[25] = biological target: Serine/threonine-protein kinase Nek1 (Homo sapiens) (UniProt Q96PY6); details: Compound concentration 1000.0 nM
[26] = biological target: Serine/threonine-protein kinase OSR1 (Homo sapiens) (UniProt O95747); details: Compound concentration 1000.0 nM
[27] = biological target: Mitogen-activated protein kinase 11 (Homo sapiens) (UniProt Q15759); details: Compound concentration 1000.0 nM
[28] = biological target: Serine/threonine-protein kinase PAK 1 (Homo sapiens) (UniProt Q13153); details: Compound concentration 1000.0 nM
[29] = biological target: Platelet-derived growth factor receptor beta (Homo sapiens) (UniProt P09619); details: Compound concentration 1000.0 nM
[30] = biological target: Phosphatidylinositol 4,5-bisphosphate 3-kinase catalytic subunit beta isoform (Homo sapiens) (UniProt P42338); details: Compound concentration 1000.0 nM
[31] = biological target: Phosphatidylinositol 4,5-bisphosphate 3-kinase catalytic subunit gamma isoform (Homo sapiens) (UniProt P48736); details: Compound concentration 1000.0 nM
[32] = biological target: Serine/threonine-protein kinase pim-2 (Homo sapiens) (UniProt Q9P1W9); details: Compound concentration 1000.0 nM
[33] = biological target: Serine/threonine-protein kinase PLK4 (Homo sapiens) (UniProt O00444); details: Compound concentration 1000.0 nM
[34] = biological target: Protein kinase C eta type (Homo sapiens) (UniProt P24723); details: Compound concentration 1000.0 nM
[35] = biological target: Serine/threonine-protein kinase SIK3 (Homo sapiens) (UniProt Q9Y2K2); details: Compound concentration 1000.0 nM
[36] = tested on: Proto-oncogene tyrosine-protein kinase receptor Ret (Homo sapiens), P07949 [V804L]; details: Compound concentration 1000.0 nM
[37] = biological target: Ribosomal protein S6 kinase alpha-4 (Homo sapiens) (UniProt O75676); details: Compound concentration 1000.0 nM
[38] = biological target: Serine/threonine-protein kinase Sgk1 (Homo sapiens) (UniProt O00141); details: Compound concentration 1000.0 nM
[39] = biological target: SRSF protein kinase 2 (Homo sapiens) (UniProt P78362); details: Compound concentration 1000.0 nM
[40] = biological target: STE20/SPS1-related proline-alanine-rich protein kinase (Homo sapiens) (UniProt Q9UEW8); details: Compound concentration 1000.0 nM
[41] = biological target: Non-receptor tyrosine-protein kinase TNK1 (Homo sapiens) (UniProt Q13470); details: Compound concentration 1000.0 nM
[42] = biological target: Serine/threonine-protein kinase WNK1 (Homo sapiens) (UniProt Q9H4A3); details: Compound concentration 1000.0 nM
[43] = biological target: Tyrosine-protein kinase ZAP-70 (Homo sapiens) (UniProt P43403); details: Compound concentration 1000.0 nM
[44] = biological target: Sodium-dependent serotonin transporter (Homo sapiens, UniProt P31645); details: Compound concentration 10.0 uM
[45] = biological target: Delta-type opioid receptor (Homo sapiens) (UniProt P41143); details: Compound concentration 10.0 uM

Chain of Sodium-dependent serotonin transporter (P31645 whole entry, looked up): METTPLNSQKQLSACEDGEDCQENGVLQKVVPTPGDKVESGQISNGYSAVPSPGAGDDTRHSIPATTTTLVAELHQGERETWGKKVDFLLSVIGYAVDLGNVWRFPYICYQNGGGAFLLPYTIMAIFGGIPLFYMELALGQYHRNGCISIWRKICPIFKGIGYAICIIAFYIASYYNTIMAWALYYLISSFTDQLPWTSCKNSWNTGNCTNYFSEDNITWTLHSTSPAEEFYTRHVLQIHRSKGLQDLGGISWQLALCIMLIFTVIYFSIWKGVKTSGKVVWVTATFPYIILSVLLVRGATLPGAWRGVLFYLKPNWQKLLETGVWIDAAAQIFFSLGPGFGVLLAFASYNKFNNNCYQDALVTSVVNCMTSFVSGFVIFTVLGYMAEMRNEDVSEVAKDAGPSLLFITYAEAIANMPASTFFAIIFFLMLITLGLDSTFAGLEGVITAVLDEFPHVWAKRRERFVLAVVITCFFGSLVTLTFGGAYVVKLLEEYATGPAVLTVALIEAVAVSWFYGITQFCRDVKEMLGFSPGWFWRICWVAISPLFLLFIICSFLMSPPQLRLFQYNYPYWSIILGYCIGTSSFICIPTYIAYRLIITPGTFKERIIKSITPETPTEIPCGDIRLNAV
Chain of Serine/threonine-protein kinase SIK3 (Homo sapiens) (Q9Y2K2 whole entry, looked up): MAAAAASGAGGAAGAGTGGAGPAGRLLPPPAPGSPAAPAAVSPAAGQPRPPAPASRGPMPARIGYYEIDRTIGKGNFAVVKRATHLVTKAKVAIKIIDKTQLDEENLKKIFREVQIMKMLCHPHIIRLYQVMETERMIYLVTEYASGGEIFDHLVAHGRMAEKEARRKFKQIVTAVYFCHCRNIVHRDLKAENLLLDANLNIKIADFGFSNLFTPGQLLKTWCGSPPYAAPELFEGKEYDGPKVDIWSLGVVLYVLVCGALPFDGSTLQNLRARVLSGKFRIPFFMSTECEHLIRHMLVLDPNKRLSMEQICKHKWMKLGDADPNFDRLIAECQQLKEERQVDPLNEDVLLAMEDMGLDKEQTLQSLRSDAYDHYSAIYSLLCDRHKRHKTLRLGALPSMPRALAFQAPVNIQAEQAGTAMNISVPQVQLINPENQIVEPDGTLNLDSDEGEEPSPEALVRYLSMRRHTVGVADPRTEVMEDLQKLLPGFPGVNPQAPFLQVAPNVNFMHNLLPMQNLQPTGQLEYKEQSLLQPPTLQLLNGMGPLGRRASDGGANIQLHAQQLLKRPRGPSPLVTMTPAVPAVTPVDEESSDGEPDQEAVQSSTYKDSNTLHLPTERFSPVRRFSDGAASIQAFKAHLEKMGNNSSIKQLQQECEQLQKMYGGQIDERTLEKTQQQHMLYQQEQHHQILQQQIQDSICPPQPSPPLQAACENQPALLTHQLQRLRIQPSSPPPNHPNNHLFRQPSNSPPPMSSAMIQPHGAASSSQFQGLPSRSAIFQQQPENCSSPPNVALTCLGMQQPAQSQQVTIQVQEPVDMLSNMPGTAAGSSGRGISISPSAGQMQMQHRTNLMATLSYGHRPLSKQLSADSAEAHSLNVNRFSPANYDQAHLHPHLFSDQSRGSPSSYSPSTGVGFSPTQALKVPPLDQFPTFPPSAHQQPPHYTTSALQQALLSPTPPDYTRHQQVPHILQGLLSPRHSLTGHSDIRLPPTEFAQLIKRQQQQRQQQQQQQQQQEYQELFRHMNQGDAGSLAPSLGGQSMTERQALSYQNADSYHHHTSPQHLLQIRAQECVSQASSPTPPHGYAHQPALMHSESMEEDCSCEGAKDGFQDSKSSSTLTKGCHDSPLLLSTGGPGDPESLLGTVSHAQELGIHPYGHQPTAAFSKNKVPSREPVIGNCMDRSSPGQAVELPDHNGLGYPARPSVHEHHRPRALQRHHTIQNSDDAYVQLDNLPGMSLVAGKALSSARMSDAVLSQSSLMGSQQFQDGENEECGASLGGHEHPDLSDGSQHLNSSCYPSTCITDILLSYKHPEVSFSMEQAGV
Chain of Serine/threonine-protein kinase PLK4 (Homo sapiens) (O00444 whole entry): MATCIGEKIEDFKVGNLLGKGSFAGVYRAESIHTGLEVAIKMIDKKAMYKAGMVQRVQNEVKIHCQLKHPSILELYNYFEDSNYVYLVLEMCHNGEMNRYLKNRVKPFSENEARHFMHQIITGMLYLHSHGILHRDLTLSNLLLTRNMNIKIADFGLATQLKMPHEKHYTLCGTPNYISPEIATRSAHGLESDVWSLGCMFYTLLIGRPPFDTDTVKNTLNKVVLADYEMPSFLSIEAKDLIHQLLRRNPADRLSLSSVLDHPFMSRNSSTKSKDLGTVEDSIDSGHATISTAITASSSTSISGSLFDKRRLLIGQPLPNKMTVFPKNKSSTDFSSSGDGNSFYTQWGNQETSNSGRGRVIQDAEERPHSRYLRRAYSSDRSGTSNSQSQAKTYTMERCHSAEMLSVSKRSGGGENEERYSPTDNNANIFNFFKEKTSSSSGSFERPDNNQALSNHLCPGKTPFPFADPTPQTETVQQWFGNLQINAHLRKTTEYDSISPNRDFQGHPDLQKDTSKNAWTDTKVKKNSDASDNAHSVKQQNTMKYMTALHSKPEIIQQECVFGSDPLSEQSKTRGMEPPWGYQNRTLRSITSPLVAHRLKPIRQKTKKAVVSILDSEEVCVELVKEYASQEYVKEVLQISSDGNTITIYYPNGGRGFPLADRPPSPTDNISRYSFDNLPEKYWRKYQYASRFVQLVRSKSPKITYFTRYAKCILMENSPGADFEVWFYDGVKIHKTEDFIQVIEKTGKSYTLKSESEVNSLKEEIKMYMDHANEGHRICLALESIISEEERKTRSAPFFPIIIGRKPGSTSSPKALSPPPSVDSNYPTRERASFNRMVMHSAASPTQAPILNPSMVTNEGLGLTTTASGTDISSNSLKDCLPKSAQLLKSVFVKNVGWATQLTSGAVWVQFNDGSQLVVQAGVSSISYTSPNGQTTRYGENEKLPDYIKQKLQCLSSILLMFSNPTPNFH
Chain of Serine/threonine-protein kinase OSR1 (Homo sapiens) (O95747 2-527 limits assumed): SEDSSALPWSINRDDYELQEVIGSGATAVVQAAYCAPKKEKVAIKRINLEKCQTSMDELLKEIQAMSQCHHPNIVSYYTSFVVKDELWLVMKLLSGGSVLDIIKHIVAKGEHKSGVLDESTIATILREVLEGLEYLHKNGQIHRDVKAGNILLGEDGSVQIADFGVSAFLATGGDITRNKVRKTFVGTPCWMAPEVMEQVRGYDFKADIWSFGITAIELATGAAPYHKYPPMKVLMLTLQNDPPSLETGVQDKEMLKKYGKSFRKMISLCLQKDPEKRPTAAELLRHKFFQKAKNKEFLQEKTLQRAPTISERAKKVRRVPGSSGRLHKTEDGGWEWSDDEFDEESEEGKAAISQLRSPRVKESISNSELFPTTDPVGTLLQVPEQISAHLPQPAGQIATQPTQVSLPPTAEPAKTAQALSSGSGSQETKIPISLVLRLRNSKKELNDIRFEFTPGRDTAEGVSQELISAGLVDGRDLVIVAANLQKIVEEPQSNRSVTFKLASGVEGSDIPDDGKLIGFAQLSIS
Chain of Mitogen-activated protein kinase 7 (Homo sapiens) (Q13164 2-816 limits assumed): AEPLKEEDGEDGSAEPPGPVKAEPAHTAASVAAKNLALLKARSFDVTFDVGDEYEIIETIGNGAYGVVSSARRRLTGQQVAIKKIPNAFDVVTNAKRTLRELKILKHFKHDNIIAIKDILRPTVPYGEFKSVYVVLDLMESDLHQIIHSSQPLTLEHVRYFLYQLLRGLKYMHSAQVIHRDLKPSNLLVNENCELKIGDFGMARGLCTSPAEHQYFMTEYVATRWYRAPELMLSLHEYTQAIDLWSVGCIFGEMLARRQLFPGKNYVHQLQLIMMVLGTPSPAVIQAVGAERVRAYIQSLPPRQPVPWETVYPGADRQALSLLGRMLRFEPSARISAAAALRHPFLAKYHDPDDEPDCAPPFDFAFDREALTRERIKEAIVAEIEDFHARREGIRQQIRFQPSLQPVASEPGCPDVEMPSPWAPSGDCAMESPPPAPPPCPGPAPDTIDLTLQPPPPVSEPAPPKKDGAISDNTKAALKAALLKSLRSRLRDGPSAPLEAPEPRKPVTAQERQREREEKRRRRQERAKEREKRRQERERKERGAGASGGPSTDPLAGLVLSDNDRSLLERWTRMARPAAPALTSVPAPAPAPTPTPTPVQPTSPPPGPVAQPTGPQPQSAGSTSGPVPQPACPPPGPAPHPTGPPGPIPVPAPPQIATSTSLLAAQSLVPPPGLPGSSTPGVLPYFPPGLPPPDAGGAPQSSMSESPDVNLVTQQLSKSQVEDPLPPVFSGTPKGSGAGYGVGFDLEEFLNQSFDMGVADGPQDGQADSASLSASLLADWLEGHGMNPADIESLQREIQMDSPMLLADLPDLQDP
Chain of Non-receptor tyrosine-protein kinase TNK1 (Homo sapiens) (Q13470 whole entry): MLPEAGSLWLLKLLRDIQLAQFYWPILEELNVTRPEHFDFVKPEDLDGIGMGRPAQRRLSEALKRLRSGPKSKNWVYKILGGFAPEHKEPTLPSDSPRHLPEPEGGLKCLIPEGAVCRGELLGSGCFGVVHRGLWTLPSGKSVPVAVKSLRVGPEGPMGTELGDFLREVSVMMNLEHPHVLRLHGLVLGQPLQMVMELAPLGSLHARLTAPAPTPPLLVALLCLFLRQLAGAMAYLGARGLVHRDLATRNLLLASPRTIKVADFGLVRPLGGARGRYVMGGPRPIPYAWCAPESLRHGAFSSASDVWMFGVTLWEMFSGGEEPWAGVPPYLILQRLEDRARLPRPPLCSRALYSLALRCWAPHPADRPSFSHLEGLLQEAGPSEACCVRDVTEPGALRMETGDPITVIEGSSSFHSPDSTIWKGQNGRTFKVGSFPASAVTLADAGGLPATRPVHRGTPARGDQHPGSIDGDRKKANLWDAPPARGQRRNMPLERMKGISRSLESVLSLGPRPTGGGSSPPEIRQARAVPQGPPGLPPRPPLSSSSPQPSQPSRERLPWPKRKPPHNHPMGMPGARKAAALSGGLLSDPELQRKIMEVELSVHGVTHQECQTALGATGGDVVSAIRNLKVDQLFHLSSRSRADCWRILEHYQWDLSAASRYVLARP

COc1cc(-c2cn([C@H]3CCc4c(F)cccc4N(CC(F)(F)F)C3=O)nn2)ccc1-n1cnc(C)c1
inactive: residual activity [2] 100% | residual activity [3] 100% | residual activity [4] 100% | residual activity [5] 100% | residual activity [6] 99% | residual activity [7] 100% | residual activity [8] 80% | residual activity [9] 100% | residual activity [10] 100% | residual activity [11] 100% | residual activity [12] 83% | residual activity [13] 97% | residual activity [14] 100% | residual activity [15] 100% | residual activity [16] 100% | residual activity [17] 80% | residual activity [18] 100% | residual activity [19] 100% | residual activity [20] 75% | residual activity [21] 94% | residual activity [22] 100% | residual activity [23] 100% | residual activity [24] 100% | residual activity [25] 100% | residual activity [26] 100% | residual activity [27] 90% | residual activity [28] 93% | residual activity [29] 100% | residual activity [30] 100% | residual activity [31] 84% | residual activity [32] 100% | residual activity [33] 100% | residual activity [34] 100% | residual activity [35] 100% | residual activity [36] 100% | residual activity [37] 100% | residual activity [38] 90% | residual activity [39] 100% | residual activity [40] 100% | residual activity [41] 100% | residual activity [42] 100% | residual activity [43] 100% | inhibition [45] 18.2%
active: IC50 [1] 0.031 µM | inhibition [44] 88.6%

COc1cc(-c2cn([C@H]3CCc4ccccc4N(CC(F)(F)F)C3=O)nn2)ccc1-n1ccc(C)n1
active: inhibition [44] 90.6%
inactive: residual activity [2] 89% | residual activity [3] 100% | residual activity [4] 100% | residual activity [5] 100% | residual activity [6] 100% | residual activity [7] 90% | residual activity [8] 100% | residual activity [9] 100% | residual activity [10] 100% | residual activity [11] 97% | residual activity [12] 59% | residual activity [13] 95% | residual activity [14] 100% | residual activity [15] 100% | residual activity [16] 100% | residual activity [17] 100% | residual activity [18] 100% | residual activity [19] 95% | residual activity [20] 84% | residual activity [21] 100% | residual activity [22] 90% | residual activity [23] 100% | residual activity [24] 100% | residual activity [25] 100% | residual activity [26] 91% | residual activity [27] 82% | residual activity [28] 100% | residual activity [29] 100% | residual activity [30] 100% | residual activity [31] 67% | residual activity [32] 100% | residual activity [33] 73% | residual activity [34] 73% | residual activity [35] 92% | residual activity [36] 100% | residual activity [37] 78% | residual activity [38] 88% | residual activity [39] 81% | residual activity [40] 98% | residual activity [41] 100% | residual activity [42] 100% | residual activity [43] 82% | inhibition [45] 16.7%
> 10 µM (not active): IC50 [1]
